# From US20070286886A1, “Materials And Methods For Inducing Apoptosis In Adipocytes” (University of Tennessee Research Foundation, priority 2004, published 2007)
# Test system: 3T3-L1 and UCP2-transfected 3T3-L1 cells
# Experiment: ATP production (microplate luminometer) in adipocytes
# Type: cell-based
# Details: 4 h
# Experimental: Adipocytes were incubated with adipocyte medium for 4 h with or without 1α,25-(OH)2-D3. ATP levels were measured using ENLITEN Total ATP Rapid Biocontamination Detection Kit (Promega, Madison, […].) according to the manufacturer's instructions. Cellular ATP was extracted as described previously and measured using a microplate luminometer (Labsystem, Helsinki, Finland). The integration time of the luminometer was set at 1 s with normal gain. Measurement of cytosolic Ca^2+ ([Ca^2+]c) and mitochondrial calcium([Ca^2+]m)
smiles,measurement,setting,value
"C=C1/C(=C\C=C2/CCC[C@]3(C)[C@@H]([C@H](C)CCCC(C)(C)O)CC[C@@H]23)C[C@@H](O)C[C@@H]1O [1α,25-(OH)2-D3, 1α,25-dihydroxyvitamin D3]",ATP production,"high dose (100 nM), P<0.05",inhibited
same,ATP production,"low dose, P<0.01",markedly increased
